Measurements as given in patent US12421220B2, “Bicyclic-substituted glutarimide cereblon binders” (C4 THERAPEUTICS, INC., priority 2022, dated 2025).

The molecules below were run against CRBN-DDB1 (CRBN_DDB1.3) (Homo sapiens, UniProt Q96SW2) (assay: Fluorescence polarization (FP) binding assay, CRBN_DDB1.3 construct). Conditions: 0.05% PA, 0.1% BSA; benzomorpholine binders; read-out: FP CRBN_DDB1.3 0.05% PA, 0.1% BSA Ka nM.
Protocol: Example 2: Fluorescence Polarization (FP) Assay for Screening Compound Ligand Binders of CRBN-DDB1
Measuring compound ligand binding to CRBN-DDB 1 was carried out using an established sensitive and quantitative in vitro fluorescence polarization (FP) based binding assay. (See, I. J. Enyedy et al, J. Med. Chem., 44: […] [2001]). Compounds were dispensed from serially diluted DMSO stock into black 384-well compatible fluorescence polarization plates using an Echo acoustic dispenser. Compound binding to CRBN-DDB 1 was measured by displacement of an established CRBN binding ligand conjugated to an Alexa Fluor® dye (probe). A […] mixture containing 10nM CRBN-DDB1 and 5 nM probe in 50 mM Hepes, pH 7.4, 200 mM NaCl, 1% DMSO, 0.1% BSA and 0.05% o pluronic acid-127 acid was added to wells containing compound and incubated at room temperature for 60 min. Matching control wells excluding CRBN-DDB 1 were used to correct for background fluorescence. Plates were read on an Envision plate reader with appropriate FP filter sets. The corrected S (perpendicular) and P (parallel) values were used to calculate fluorescence polarization (FP) with the following equation: FP=1000*(S−G*P)/(S+G*P).
The fractional amount of bound probe (FB) to CRBN-DDB 1 as a function of compound concentration was fitted according to Wang; FEBS Letters 360, (1995), 111-114 to obtain fits for parameter offsets and binding constant (KA) of competitor compound.

Sequence of CRBN-DDB1 (CRBN_DDB1.3) (Q96SW2 318-426 limits assumed): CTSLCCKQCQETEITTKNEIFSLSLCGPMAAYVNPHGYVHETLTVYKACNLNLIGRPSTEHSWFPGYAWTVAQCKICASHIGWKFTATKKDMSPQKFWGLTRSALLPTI

Row | SMILES | Kd
1 | O=C1CCC(N2CCOc3c([C@@H]4CCNC4)cccc32)C(=O)N1 (stereo partly drawn) [Compound 14-7, 3-(8-((S)-pyrrolidin-3-yl)-2H-benzo[b][1,4]oxazin-4(3H)-yl)piperidine-2,6-dione] | ≤ 100000 nM
2 | O=C(O)CN1CCC(c2cccc3c2OCC(=O)N3C2CCC(=O)NC2=O)CC1 (centres unmarked) [Compound 29-5, 2-(4-(4-(2,6-dioxopiperidin-3-yl)-3-oxo-3,4-dihydro-2H-benzo[b][1,4]oxazin-8-yl)piperidin-1-yl)acetic acid] | ≤ 100000 nM
3 | O=C1CCC(c2ccnc3c2OCCN3C2CCC(=O)NC2=O)CC1 (centres unmarked) [Compound 8-10, 3-(8-(4-oxocyclohexyl)-2,3-dihydro-4H-pyrido[3,2-b][1,4]oxazin-4-yl)piperidine-2,6-dione] | ≤ 100000 nM
4 | CC(C)(C)OC(=O)CN1CCC(c2cccc3c2OCCN3[C@@H]2CCC(=O)NC2=O)CC1 (single isomer, unassigned) [Compound 24-4] | ≤ 100000 nM
5 | O=C1CCC(N2CCOc3c([C@H]4CCCNC4)cccc32)C(=O)N1 (stereo partly drawn) [Compound 13-8, 3-[8-[(3R)-3-piperidyl]-2,3-dihydro-1,4-benzoxazin-4-yl]piperidine-2,6-dione] | ≤ 100000 nM
6 | CNC1CCN(c2cccc3c2O[C@H](C)CN3C2CCC(=O)NC2=O)CC1 (stereo partly drawn) [Compound 18-10, 3-[(2R)-2-methyl-8-[4-(methylamino)-1-piperidyl]-2,3-dihydro-1,4-benzoxazin-4-yl]piperidine-2,6-dione] | ≤ 100000 nM
7 | O=C1CCC(N2CCOc3c(N4CCNCC4)cccc32)C(=O)N1 (centres unmarked) [Compound 10-10, 3-(8-(piperazin-1-yl)-2H-benzo[b][1,4]oxazin-4(3H)-yl)piperidine-2,6-dione] | ≤ 100000 nM
8 | CC(C)(C)OC(=O)CN1CCC(c2cccc3c2OCCN3[C@H]2CCC(=O)NC2=O)CC1 (single isomer, unassigned) [Compound 24-3] | ≤ 100000 nM
9 | O=C1CCN(c2cccc3c2OCCN3C2CCC(=O)NC2=O)CC1 (centres unmarked) [Compound 6-12, 3-(8-(4-oxopiperidin-1-yl)-2,3-dihydro-4H-benzo[b][1,4]oxazin-4-yl)piperidine-2,6-dione] | ≤ 100000 nM
10 | O=C1CCC(N2CCOc3c([C@@H]4CCCNC4)cccc32)C(=O)N1 (stereo partly drawn) [Compound 13-11, 3-[8-[(3S)-3-piperidyl]-2,3-dihydro-1,4-benzoxazin-4-yl]piperidine-2,6-dione] | ≤ 100000 nM
11 | O=C1CCC(c2cccc3c2OCCN3C2CCC(=O)NC2=O)CC1 (centres unmarked) [Compound 5-14, 3-[8-(4-oxocyclohexyl)-2,3-dihydro-1,4-benzoxazin-4-yl]piperidine-2,6-dione] | ≤ 100000 nM
12 | O=C1CCC(N2CCOc3c(N4CCC(O)(C(=O)O)CC4)cccc32)C(=O)N1 (centres unmarked) [Compound 27-8, 1-[4-(2,6-dioxo-3-piperidyl)-2,3-dihydro-1,4-benzoxazin-8-yl]-4-hydroxy-piperidine-4-carboxylic acid] | ≤ 100000 nM
13 | CNC1CCN(c2cccc3c2O[C@@H](C)CN3C2CCC(=O)NC2=O)CC1 (stereo partly drawn) [Compound 18-13, 3-[(2S)-2-methyl-8-[4-(methylamino)-1-piperidyl]-2,3-dihydro-1,4-benzoxazin-4-yl]piperidine-2,6-dione] | ≤ 100000 nM
14 | O=C1CCC(N2CCOc3c(C4CCC5(CCNCC5)CC4)cccc32)C(=O)N1 (centres unmarked) [Compound 20-7, 3-[8-(3-azaspiro[5.5]undecan-9-yl)-2,3-dihydro-1,4-benzoxazin-4-yl]piperidine-2,6-dione] | ≤ 100000 nM
15 | CN(C(=O)OC(C)(C)C)C1CCN(c2cccc3c2OCCN3[C@H]2CCC(=O)NC2=O)CC1 (single isomer, unassigned) [Compound 16-6] | ≤ 100000 nM

Same assay, conditions: 0.05% PA, 0.1% BSA; indoline binders; read-out: FP CRBN_DDB1.3 0.05% PA, 0.1% BSA ka nM

Row | SMILES | Kd
16 | CN(C(=O)OC(C)(C)C)[C@H]1CC[C@@H](c2c(F)cc3c(c2F)CCN3[C@@H]2CCC(=O)NC2=O)CC1 (single isomer, unassigned) [Compound 55-7] | < 100000 nM
17 | CC(C)(C)OC(=O)C1CCN(Cc2cccc3c2CCN3[C@@H]2CCC(=O)NC2=O)CC1 (single isomer, unassigned) [Compound 54-7] | < 100000 nM
18 | CC(C)(C)OC(=O)N1CC[C@@H]2CN(c3cccc4c3CCN4[C@H]3CCC(=O)NC3=O)CC[C@@H]21 (single isomer, unassigned) [Compound 56-8b] | < 100000 nM
19 | CC(C)(C)OC(=O)CC1(O)CCN(c2cccc3c2CCN3[C@@H]2CCC(=O)NC2=O)CC1 (single isomer, unassigned) [Compound 38-7] | < 1000 nM
20 | O=C1CC[C@@H](N2CCc3c(N4CCC(CO)CC4)cccc32)C(=O)N1 (single isomer, unassigned) [Compound 53-6] | < 100000 nM
21 | CC(C)(C)OC(=O)N1CCC(c2cc3c(cc2F)N([C@@H]2CCC(=O)NC2=O)CC3)CC1 (single isomer, unassigned) [Compound 52-7] | < 100000 nM
22 | CC(C)(C)OC(=O)N1CCC(c2ccc3c(c2)CCN3[C@@H]2CCC(=O)NC2=O)CC1 (single isomer, unassigned) [Compound 40-5] | < 1000 nM
23 | CC(C)(C)OC(=O)N1CC[C@@H]2CN(c3cccc4c3CCN4[C@@H]3CCC(=O)NC3=O)CC[C@@H]21 (single isomer, unassigned) [Compound 59-9b] | < 1000 nM
24 | CC(C)(C)OC(=O)N1CCC(c2ccc3c(c2)CCN3[C@H]2CCC(=O)NC2=O)CC1 (single isomer, unassigned) [Compound 40-6] | < 100000 nM
25 | CC(C)(C)OC(=O)N1CC[C@H]2CN(c3cccc4c3CCN4[C@H]3CCC(=O)NC3=O)CC[C@H]21 (single isomer, unassigned) [Compound 56-8a] | < 100000 nM
26 | CC(C)(C)OC(=O)CC1(O)CCN(c2cccc3c2CCN3[C@H]2CCC(=O)NC2=O)CC1 (single isomer, unassigned) [Compound 38-6] | < 100000 nM
27 | CC(C)(C)OC(=O)C1CCN(c2cccc3c2CCN3[C@H]2CCC(=O)NC2=O)CC1 (single isomer, unassigned) [Compound 48-6] | < 100000 nM
28 | CC(C)(C)OC(=O)N1CCC(c2cc3c(cc2F)N([C@H]2CCC(=O)NC2=O)CC3)CC1 (single isomer, unassigned) [Compound 52-6] | < 1000 nM
29 | CC(C)(C)OC(=O)N1CC[C@H]2CN(c3cccc4c3CCN4[C@@H]3CCC(=O)NC3=O)CC[C@H]21 (single isomer, unassigned) [Compound 56-9a] | < 100000 nM
30 | CC(C)(C)OC(=O)CC1CCN(c2cccc3c2CCN3[C@H]2CCC(=O)NC2=O)CC1 (single isomer, unassigned) [Compound 39-5] | < 100000 nM
31 | CN(C(=O)OC(C)(C)C)[C@H]1CC[C@@H](c2c(F)cc3c(c2F)CCN3[C@H]2CCC(=O)NC2=O)CC1 (single isomer, unassigned) [Compound 55-6] | < 100000 nM
32 | O=C1CCC(N2CCc3c(N4CCC(CCO)CC4)cccc32)C(=O)N1 (racemic) [Compound 42-4, 3-[4-[4-(2-hydroxyethyl)-1-piperidyl]indolin-1-yl]piperidine-2,6-dione] | < 100000 nM
33 | O=C1CC[C@H](N2CCc3c(N4CCC(CO)CC4)cccc32)C(=O)N1 (single isomer, unassigned) [Compound 53-5] | < 1000 nM
34 | CC(C)(C)OC(=O)CC1CCN(c2cccc3c2CCN3[C@@H]2CCC(=O)NC2=O)CC1 (single isomer, unassigned) [Compound 39-6] | < 1000 nM
35 | CN(C(=O)OC(C)(C)C)[C@H]1CC[C@H](c2c(F)cc3c(c2F)CCN3[C@@H]2CCC(=O)NC2=O)CC1 (single isomer, unassigned) [Compound 55-5] | < 100000 nM
36 | CC(C)(C)OC(=O)C1CCN(c2cccc3c2CCN3[C@@H]2CCC(=O)NC2=O)CC1 (single isomer, unassigned) [Compound 48-7] | < 100000 nM

Same assay, conditions: 0.05% PA, 0.1% BSA; tetrahydroquinoline binders; read-out: FP CRBN_DDB1.3 0.05% PA, 0.1% BSA ka nM

Row | SMILES | Kd
37 | CC(C)(C)OC(=O)N1CCN(c2cccc3c2CCCN3[C@H]2CCC(=O)NC2=O)CC1 (single isomer, unassigned) [Compound 68-3] | < 100000 nM
38 | CN(C(=O)OC(C)(C)C)C1CCN(c2cccc3c2CCCN3[C@H]2CCC(=O)NC2=O)CC1 (single isomer, unassigned) [Compound 61-5] | < 100000 nM
39 | CC(C)(C)OC(=O)N1CCC(OC2CCN(c3cccc4c3CCCN4[C@@H]3CCC(=O)NC3=O)CC2)CC1 (single isomer, unassigned) [Compound 67-7] | < 1000 nM
40 | CN(C(=O)OC(C)(C)C)C1CCN(c2cccc3c2CCCN3[C@@H]2CCC(=O)NC2=O)CC1 (single isomer, unassigned) [Compound 61-6] | < 1000 nM
41 | O=C1CC[C@H](N2CCCc3c(N4CCC(CCO)CC4)cccc32)C(=O)N1 (single isomer, unassigned) [Compound 66-4] | < 1000 nM
42 | CC(C)(C)OC(=O)CN1CCC(c2cccc3c2CCCN3[C@H]2CCC(=O)NC2=O)CC1 (single isomer, unassigned) [Compound 60-3] | < 1000 nM
43 | CC(C)(C)OC(=O)CN1CCC(c2cccc3c2CCCN3[C@@H]2CCC(=O)NC2=O)CC1 (single isomer, unassigned) [Compound 60-4] | < 100000 nM
44 | CC(C)(C)OC(=O)N1CCN(c2cccc3c2CCCN3[C@@H]2CCC(=O)NC2=O)CC1 (single isomer, unassigned) [Compound 68-4] | < 1000 nM
